According to ChEMBL document CHEMBL1614632, “Trend analysis of a database of intravenous pharmacokinetic parameters in humans for 670 drug compounds” (Drug Metab Dispos, 2008):

What was measured:
clinical [1] = conditions: human, in vivo, iv, Vdss
clinical [2] = conditions: human, in vivo, iv
clinical [3] = conditions: human, in vivo, iv, CL
[4] = human, in vivo, iv
clinical [5] = conditions: human, in vivo, iv; remark: listed apart in the source
clinical [6] = conditions: human, in vivo, iv, t1/2
[7] = human, in vivo, iv; remark: listed apart in the source
[8] = human, in vivo, iv; remark: listed apart in the source

Row | SMILES | Vd (clinical [1]) [L/kg] | MRT (clinical [2]) [h] | clearance (clinical [3]) [mL/min/kg] | t1/2 [4] [h] | fraction unbound (clinical [5]) | half-life (clinical [6]) [h] | MRT [7] [h] | Vdss [8] [L/kg]
1 | CCN(CC)CCCC(C)Nc1ccnc2cc(Cl)ccc12 (stereo not given) [CHLOROQUINE] | 140 | 740 | 4.1 | 570 |  |  |  | 
2 | NCCC(O)(P(=O)(O)O)P(=O)(O)O [PAMIDRONIC ACID] | 1.8 | 12 | 2.5 | 32 |  |  |  | 
3 | COc1cc(NC(C)CCCN)c2ncccc2c1 (stereo not given) [PRIMAQUINE] | 4 | 11 | 5.8 | 7.1 |  |  |  | 
4 | C[C@@H](O)[C@H]1C(=O)N2C(C(=O)O)=C(S[C@@H]3CN[C@H](C(=O)N(C)C)C3)[C@H](C)[C@H]12 [MEROPENEM] |  |  | 3.9 |  | 0.87 | 1 | 1.3 | 
5 | CC1CNc2c(cccc2S(=O)(=O)N[C@@H](CCCNC(=N)N)C(=O)N2CC[C@@H](C)C[C@@H]2C(=O)O)C1 (stereo not given in full) [ARGATROBAN] | 0.17 | 0.57 | 5 | 0.4 |  |  |  | 
6 | COc1cc2c(c(OC)c1OC)-c1ccc(OC)c(=O)cc1[C@@H](NC(C)=O)CC2 [COLCHICINE] | 6.1 | 49 | 2.1 | 58 |  |  |  | 
7 | NCCCC[C@H](NC(=O)[C@@H](Cc1cc(Br)c(O)c(Br)c1)NC(=O)N1CCC(N2Cc3ccccc3NC2=O)CC1)C(=O)N1CCN(c2ccncc2)CC1 [OLCEGEPANT] |  | 1.9 | 2.6 |  |  | 2.5 |  | 0.31
8 | COC(=O)CCc1ccc(OCC(O)CNC(C)C)cc1 (stereo not given) [ESMOLOL] | 1.2 | 0.07 | 290 | 0.15 | 0.59 |  |  | 
9 | Clc1cccc(Cl)c1N=C1NCCN1 [CLONIDINE] | 3.3 | 14 | 4 | 7.6 | 0.56 |  |  | 
10 | CCCCS(=O)(=O)N[C@@H](Cc1ccc(OCCCCC2CCNCC2)cc1)C(=O)O [TIROFIBAN] |  |  |  |  | 0.36 | 1.6 | 1.8 | 0.99
11 | COc1cccc2c1C(=O)c1c(O)c3c(c(O)c1C2=O)C[C@@](O)(C(=O)CO)C[C@@H]3O[C@H]1C[C@H](N)[C@@H](O)[C@H](C)O1 [EPIRUBICIN] | 45 | 38 | 20 | 36 |  |  |  | 
12 | COc1cc2c(cc1OC)[C@@H](Cc1cc(OC)c(OC)c(OC)c1)[N+](C)(CCCOC(=O)CC/C=C/CCC(=O)OCCC[N+]1(C)CCc3cc(OC)c(OC)cc3[C@H]1Cc1cc(OC)c(OC)c(OC)c1)CC2 (stereo not given in full) | 0.27 | 0.87 | 5.2 | 0.83 | 0.7 |  |  | 
13 | O=P(O)(O)OC(Cn1cncn1)(Cn1cncn1)c1ccc(F)cc1F [FOSFLUCONAZOLE] | 0.15 | 2 | 1.3 |  | 0.042 | 2.1 |  | 
14 | COc1ccnc(C[S+]([O-])c2nc3ccc(OC(F)F)cc3[nH]2)c1OC (stereo not given) [PANTOPRAZOLE] |  | 1.9 | 2.2 |  | 0.02 | 1.9 |  | 0.17
15 | CN1CC[C@H](c2c(O)cc(O)c3c(=O)cc(-c4ccccc4Cl)oc23)[C@H](O)C1 [ALVOCIDIB] | 1.5 | 4 | 6.1 |  | 0.06 | 5.2 |  | 
16 | CC(C)(C)NCC(O)COc1cccc2c1CC(O)C(O)C2 (stereo not given) [NADOLOL] | 1.9 | 11 | 2.9 |  | 0.14 | 9.2 |  | 

Row | SMILES | Vd (clinical [1]) [L/kg] | MRT (clinical [2]) [h] | clearance (clinical [3]) [mL/min/kg] | t1/2 [4] [h] | fraction unbound (clinical [5]) | half-life (clinical [6]) [h] | MRT [7] [h] | Vdss [8] [L/kg]
17 | CCC(C)(C)NCC(O)COc1ccccc1C(=O)CCc1ccccc1 (stereo not given) [DIPRAFENONE] | 1.2 | 1.9 | 11 |  | 0.017 | 1.5 |  | 
18 | CN[C@@H]1C[C@H]2O[C@@](C)([C@@H]1OC)n1c3ccccc3c3c4c(c5c6ccccc6n2c5c31)C(=O)N[C@@H]4O | 0.15 | 680 | 0.0037 |  | 0.0022 | 790 |  | 
19 | N=C(N)c1ccc(OCCCCCOc2ccc(C(=N)N)cc2)cc1 [PENTAMIDINE] | 53 | 12 | 74 | 25 |  |  |  | 
20 | O=[N+]([O-])O[C@H]1CO[C@H]2[C@@H]1OC[C@H]2O[N+](=O)[O-] [ISOSORBIDE DINITRATE] |  | 1 | 31 |  | 0.72 | 1.69 |  | 1.9
21 | C[C@@H](O)[C@H]1C(=O)N2C(C(=O)[O-])=C(SC3Cn4cnc[n+]4C3)[C@H](C)[C@H]12 (stereo not given in full) [BIAPENEM] | 0.2 | 1.3 | 2.5 |  | 0.92 | 1.1 |  | 
22 | COc1cccc(OC)c1C(=O)N[C@@H]1C(=O)N2[C@@H]1SC(C)(C)[C@@H]2C(=O)O [METHICILLIN] | 0.32 | 0.8 | 6.6 |  | 0.43 | 0.64 |  | 
23 | CCOc1ccc2ccccc2c1C(=O)N[C@@H]1C(=O)N2[C@@H]1SC(C)(C)[C@@H]2C(=O)O [NAFCILLIN] | 0.22 | 1.1 | 3.3 |  | 0.13 | 0.7 |  | 
24 | C=C1CC[C@@]2(O)[C@H]3Cc4ccc(O)c5c4[C@@]2(CCN3CC2CC2)[C@H]1O5 | 8.2 | 9.1 | 15 |  | 0.65 | 8.8 |  | 
25 | COc1ccccc1Oc1c(NS(=O)(=O)c2ccc(C(C)(C)C)cc2)nc(-c2ncccn2)nc1OCCO [BOSENTAN] | 0.29 | 2.3 | 2.1 |  | 0.037 | 4.1 |  | 
26 | C[C@@H]([C@@H](O)c1ccc(O)cc1)N1CCC(O)(c2ccccc2)CC1 [TRAXOPRODIL] | 4.4 | 2.6 | 27 |  | 0.63 | 3.7 |  | 
27 | CN1C[C@H](C(=O)N[C@]2(C)O[C@@]3(O)[C@@H]4CCCN4C(=O)[C@H](Cc4ccccc4)N3C2=O)C=C2c3cccc4[nH]cc(c34)C[C@H]21 [ERGOTAMINE] | 3.6 | 4 | 15 |  | 0.02 | 2.1 |  | 
28 | CCOC(=O)C1=C(C)NC(C)=C(C(=O)OC)C1c1cccc([N+](=O)[O-])c1 (stereo not given) [NITRENDIPINE] | 6.1 | 4.1 | 25 |  | 0.02 | 8.2 |  | 
29 | O=C([O-])[O-].[Li+].[Li+] [LITHIUM CARBONATE] | 0.62 | 7.9 | 1.3 |  | 1 | 7.8 |  | 
30 | COc1ccc(Cl)cc1[C@]1(F)C(=O)Nc2cc(C(F)(F)F)ccc21 [FLINDOKALNER] | 10 | 11 | 15 |  | 0.0038 | 37 |  | 
31 | NC(N)=Nc1nc(CSCCC(N)=NS(N)(=O)=O)cs1 [FAMOTIDINE] | 1.2 | 3 | 6.6 |  | 0.84 | 2.8 |  | 
32 | Nc1nc(/C(=N/O)C(=O)N[C@@H]2C(=O)N3C(C(=O)O)=C(/C=C4\CCN([C@@H]5CCNC5)C4=O)CS[C@H]23)ns1 [CEFTOBIPROLE] | 0.27 | 3 | 1.5 |  | 0.62 | 3.3 |  | 
